From US9682969B2, “Phthalazinone compounds and methods for the treatment of cystic fibrosis” (FLATLEY DISCOVERY LAB, LLC, priority 2013, dated 2017)

Biological target: human F508del CFTR (Homo sapiens (Human), UniProt P13569, DEL508-508)
Assay: CFTR-YFP High Throughput Assay (YFP flux assay, FRT cells)
Type: cell-based
Details: FRT cells expressing human F508del CFTR and YFP
Protocol: This protocol is designed to selectively screen small molecule compounds for F508del CFTR corrector activities in the YFP (yellow fluorescent protein) flux assay. In this protocol, the cells are incubated with testing compounds for 24 hours, washed with PBS, stimulated with forskolin and a standard potentiator, and fluorescence in each plate well is measured kinetically read on a 384-well plate reader, such as the Hamamatsu FDSS-6000.
YFP fluorescence intensity values are acquired at high speed before and after iodide buffer is injected to the assay cells. Iodide enters the cells via active CFTR channels in the plasma membrane, and quenches the YFP fluorescence. The rate of fluorescence quenching is proportionate to the total CFTR activity in the cell membrane. F508del CFTR correctors increase the number of CFTR molecules in the testing cell plasma membrane, and thereby accelerate YFP quenching.
This method was initially developed for bench top plate readers (Galietta, J, Jayaraman, S and Verkman, A S. Cell-based assay for high-throughput quantitative screening of CFTR chloride transport agonists. Am. J. Physiol. Cell Physiol. (2001), 281: C173), and was adapted to the HTS format (Sui J, Cotard S, Andersen J, Zhu P, Staunton J, Lee M, Lin S. Optimization of a Yellow fluorescent protein-based iodide influx high-throughput screening assay for cystic fibrosis transmembrane conductance regulator (CFTR) modulators. Assay Drug Dev Technol. (2010), 8: 656-668).
Fisher Rat Thyroid (FRT) cells stably expressing both human F508del CFTR and a halide-sensitive yellow fluorescent protein (YFP-H148Q/I152L 25,22) (Galietta et al. Am. J. Physiol Cell Physiol 281(5), C1734, 2001) were cultured on plastic surface in Coon's modified Ham's F12 medium supplemented with FBS 10%, L-glutamine 2 mM, penicillin 100 U/ml, and streptomycin […]. G418 (0.75-1.0 mg/ml) and zeocin (3.2 ug/ml) were used for selection of FRT cells expressing F508del CFTR and YFP. For primary screening, FRT cells were plated into 384-well black wall, transparent bottom microtiter plates (Costar; Corning Inc.) at a cell density of 20,000-40,000 per well. Test compound was applied to the cells at varying concentrations ranging from 2 nM-40 μM in either a 2-fold or 3-fold dilution series. Cells were incubated in a cell culture incubator at 37° C. with 5% CO2 for 24-26 h. Assay plates were washed with DPBS media (Thermo, cat# SH30028.02) to remove unbound cells and compound. Stimulation media (25 μL) containing 20 μM Forskolin & 30 μM P3 [6-(Ethyl-phenyl-sulfonyl)-4-oxo-1,4-dihydro-quinoline-3-carboxylic acid 2-methoxy-benzylamide] in Hams F-12 coon's modified media was added to the plate wells and incubated at room temperature for 60-120 min. 25 μL of HEPES-PBS-I buffer (10 mM HEPES, 1 mM MgCl2, 3 mM KCl, 1 mM CaCl2, 150 mM NaI) was then added and fluorescence quench curves (Excitation 500 nm/Emission 540 nm; exposure 136 ms) were immediately recorded on an FDSS-6000 plate reader (Hamamatsu). Quench rates were derived from least squares fitting of the data as described by Sui et al (2010).
This protocol is designed to selectively screen small molecule compounds for F508del CFTR potentiator activities in the YFP (yellow fluorescent protein) flux assay. Such compounds act acutely to stimulate CFTR already expressed on the membrane surface. In this protocol, the cells are incubated at 27° C. for 24 hours to homogeneously boost F508del CFTR expression in the cell membrane (low temperature correction), washed with PBS, treated with test compound, and CFTR activity is stimulated with forskolin for 1-2 hr. Measurement of ion flux is initiated by addition of iodide-containing buffer, and YFP quenching is kinetically recorded using a 384-well plate reader, such as the Hamamatsu FDSS-6000.
YFP fluorescence intensity values are acquired at high speed over a 1 min time course before and after iodide buffer is injected to the assay cells. […]

human F508del CFTR, sequence (P13569 other isoform, or with tags, fused parts or gaps del F508-F508): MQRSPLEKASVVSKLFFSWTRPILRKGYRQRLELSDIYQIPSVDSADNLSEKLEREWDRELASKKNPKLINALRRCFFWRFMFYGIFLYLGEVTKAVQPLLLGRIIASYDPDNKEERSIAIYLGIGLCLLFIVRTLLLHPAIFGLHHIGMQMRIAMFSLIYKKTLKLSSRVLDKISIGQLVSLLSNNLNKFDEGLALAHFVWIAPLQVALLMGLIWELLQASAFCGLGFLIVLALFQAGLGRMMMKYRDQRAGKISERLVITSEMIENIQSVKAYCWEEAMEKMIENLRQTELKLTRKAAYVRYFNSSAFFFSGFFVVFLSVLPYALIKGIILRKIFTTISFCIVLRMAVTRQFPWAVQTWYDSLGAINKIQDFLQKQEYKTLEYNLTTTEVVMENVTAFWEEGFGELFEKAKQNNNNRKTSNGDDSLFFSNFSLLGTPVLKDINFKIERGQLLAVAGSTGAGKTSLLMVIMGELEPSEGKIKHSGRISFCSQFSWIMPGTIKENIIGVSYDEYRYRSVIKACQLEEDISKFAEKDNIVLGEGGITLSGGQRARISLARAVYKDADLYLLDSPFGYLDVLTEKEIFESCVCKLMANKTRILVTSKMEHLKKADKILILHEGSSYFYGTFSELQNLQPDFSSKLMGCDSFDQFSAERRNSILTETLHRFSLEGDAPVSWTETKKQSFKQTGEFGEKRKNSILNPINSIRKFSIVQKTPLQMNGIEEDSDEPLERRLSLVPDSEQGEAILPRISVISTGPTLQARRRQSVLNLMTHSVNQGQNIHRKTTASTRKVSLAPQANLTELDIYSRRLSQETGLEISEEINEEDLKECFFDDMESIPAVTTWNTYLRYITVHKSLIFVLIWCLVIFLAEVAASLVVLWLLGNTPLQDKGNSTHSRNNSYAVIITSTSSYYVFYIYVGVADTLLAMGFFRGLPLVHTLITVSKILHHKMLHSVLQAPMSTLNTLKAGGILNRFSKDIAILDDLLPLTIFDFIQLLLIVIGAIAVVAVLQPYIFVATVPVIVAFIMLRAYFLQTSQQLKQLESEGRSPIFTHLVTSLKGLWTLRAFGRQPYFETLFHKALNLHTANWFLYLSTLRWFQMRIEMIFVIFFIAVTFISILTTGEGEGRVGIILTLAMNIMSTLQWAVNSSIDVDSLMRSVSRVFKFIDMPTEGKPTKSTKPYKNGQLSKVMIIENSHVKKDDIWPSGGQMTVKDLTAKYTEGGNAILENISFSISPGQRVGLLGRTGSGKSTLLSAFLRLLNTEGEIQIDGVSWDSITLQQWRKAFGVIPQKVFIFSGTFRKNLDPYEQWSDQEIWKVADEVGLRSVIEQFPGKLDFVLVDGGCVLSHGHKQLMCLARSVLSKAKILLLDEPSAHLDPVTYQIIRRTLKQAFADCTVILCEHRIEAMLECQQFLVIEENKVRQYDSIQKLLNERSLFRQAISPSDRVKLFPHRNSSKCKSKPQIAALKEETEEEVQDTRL

Row | Structure (SMILES) | EC50 [µM]
1 | COc1ccc2c(-c3cccc(Cl)c3)nn(CC(=O)N(C)c3ccc4nc(C)oc4c3)c(=O)c2c1 [Example 4, 2-(4-(3-chlorophenyl)-7-methoxy-1-oxophthalazin-2(1H)-yl)-N-methyl-N-(2-methylbenzo[d]oxazol-6-yl)acetamide] | < 10
2 | Cc1nc2ccc(N(C)C(=O)Cn3nc(-c4cccc(Cl)c4)c4ccccc4c3=O)cc2o1 [Example 1, 2-(4-(3-chlorophenyl)-1-oxophthalazin-2(1H)-yl)-N-methyl-N-(2-methylbenzo[d]oxazol-6-yl)acetamide] | < 10
3 | [2H]C([2H])([2H])N(C(=O)Cn1nc(-c2cccc(Cl)c2)c2ccc(OC)cc2c1=O)c1ccc2nc(C)oc2c1 [Example 6, 2-(4-(3-chlorophenyl)-7-methoxy-1-oxophthalazin-2(1H)-yl)-N-(methyl-d3)-N-(2-methylbenzo[d]oxazol-6-yl)acetamide] | < 10
4 | CCOc1cc2c(=O)n(CC(=O)N(C)c3ccc4nc(C)oc4c3)nc(-c3cccc(F)c3)c2cc1Cl [Example 30, 2-(6-chloro-7-ethoxy-4-(3-fluorophenyl)-1-oxophthalazin-2(1H)-yl)-N-methyl-N-(2-methylbenzo[d]oxazol-6-yl)acetamide] | < 10
5 | [2H]C([2H])([2H])N(C(=O)Cn1nc(-c2cccc(Cl)c2)c2ccc(OC(C)C)cc2c1=O)c1ccc2nc(C)oc2c1 [Example 20, 2-(4-(3-chlorophenyl)-7-isopropoxy-1-oxophthalazin-2(1H)-yl)-N-(methyl-d3)-N-(2-methylbenzo[d]oxazol-6-yl)acetamide] | < 10
